Measurements as given in patent US20230313313A1, “BIOMARKERS FOR CANCER THERAPY USING MDM2 ANTAGONISTS” (OTSUKA PHARMACEUTICAL CO., LTD., priority 2020, published 2023).
“Also recorded” adds a separate entry of the source.

Tests used:
OCI-AML3 cells = experiment: Induction of apoptosis by cleaved caspase-3 cytometry, combination with IAP antagonist; format: cell-based, human; conditions: 0.1 μM Compound 1 with 1 μM ASTX660 and 1 ng/ml TNF-alpha, 72 h
Experimental: Cleaved caspase-3 staining was recorded in the FL1 (green) channel, with unstained and DMSO control wells being used to set the gated stained and unstained cell populations—allowing the percentage of cells that are apoptotic to be calculated.

human leukaemia models = conditions: by inducing MDM2 degradation; cited from earlier work
[1] = test system: multiple myeloma (MM) cells; conditions: in vitro and ex vivo; cited from earlier work
cancer cell lines = conditions: cited from earlier work
MV4-11 cells = experiment: Alamar Blue proliferation assay, MV4-11 overexpressing SKP2 vs control; format: cell-based, human; conditions: MV4-11 SKP2 OE compared to control
Experimental: Precision LentiORF Transduction:
Precision LentiORF Lentiviral Transduction Particles (Cat. OHS5900-224629438, Dharmacon, UK) were used to overexpress SKP2 in the MV4-11 AML cell line. Stable gene overexpression was established by cellular resistance to blasticidin (5 μg/ml) and was confirmed at the protein level by western blot. The Precision LentiORF control empty vector (Dharmacon, UK) served as a negative control.
The number of viable cells was determined by Alamar Blue assay (Bio-Rad, Irvine, CA, USA). All cell lines were grown and assayed in RPMI-1640+10% FBS medium.
Compounds were diluted first in DMSO and then into serum-free medium, before addition to triplicate wells of the cultured cells to give a 0.1% DMSO final concentration. […] Twenty μl of Alamar Blue™ (AbD Serotec/Bio-Rad) was added to each well and plates were then incubated for 4-6 h at 37° C. in an atmosphere of 5% CO2 and air. Plates were then read at 535 nm (excitation) and 590 nm (emission) on a SpectraMax Gemini reader (Molecular Devices, San Jose, CA, USA).

tumour growth = conditions: inducing mitochondrial effects of p53; cited from earlier work
SN40R2 = experiment: Protocol A: SN40R2 growth inhibition, sulphorhodamine B (SRB) method; conditions: 72 h, read-out: SN40R2 IC50 (Protocol A)
Experimental: Following incubation with the SRB dye at room temperature for 30 min, the plates were washed with 1% acetic acid and left to dry. […] The GI50 was calculated by non-linear regression analysis of the data using Prism v4.0 statistical software.

C[C@@H]1CN(CC(=O)N2CC(C)(C)c3nc(CO)c(Cc4ccc(F)cc4)cc32)[C@@H](CN2CCOC[C@H]2C)CN1 [ASTX660, 1-{6-[(4-fluorophenyl)methyl]-5-(hydroxymethyl)-3,3-dimethyl-1H,2H,3H-pyrrolo[3,2-b]pyridin-1-yl}-2-[(2R,5R)-5-methyl-2-{[(3R)-3-methylmorpholin-4-yl]methyl}piperazin-1-yl]ethan-1-one, reference compound]
level of apoptosis (cleaved caspase-3), combination (OCI-AML3 cells): sensitises

O=C(O)C(F)(F)F.O=C1CCC(N2Cc3c(C#CCCCNC(=O)c4ccc(NC(=O)[C@@H]5NC6(CCCCC6)[C@@]6(C(=O)Nc7cc(Cl)ccc76)[C@H]5c5ccnc(Cl)c5F)cc4)cccc3C2=O)C(=O)N1 (stereo partly drawn) [LE-004]
growth of human leukaemia models in mice (human leukaemia models): efficiently inhibited growth

c1ccc2c(CCNc3ccc(Nc4ccncc4)cc3)c[nH]c2c1 [JNJ 26854165]
activity against multiple myeloma (MM) cells [1]: potent activity

CC(C)(C)C[C@@H]1N[C@@H](C(=O)N[C@H]2CC[C@H](O)CC2)[C@H](c2cccc(Cl)c2F)[C@]12C(=O)Nc1cc(Cl)ccc12 [MI-773]
cell growth in cancer cell lines (cancer cell lines): potently inhibits cell growth

CC1(C)CCC(CN2CCN(c3ccc(C(=O)NS(=O)(=O)c4ccc(NCC5CCOCC5)c([N+](=O)[O-])c4)c(Oc4cnc5[nH]ccc5c4)c3)CC2)=C(c2ccc(Cl)cc2)C1 [ABT-199, reference compound]
effect of SKP2 overexpression on cytotoxicity / sensitivity (MV4-11 cells): does not modulate sensitivity; also recorded: no difference

COC1CC(C(N)=O)CCC1NC(=O)[C@@H]1N[C@@H](CC(C)(C)C)[C@@]2(C(=O)Nc3cc(Cl)ccc32)[C@H]1c1cccc(Cl)c1F (stereo partly drawn) [RO-8994]
tumour growth (tumour growth): inhibit tumour growth

CC(C)(O)c1cc(F)c2c(c1)C(=O)N(Cc1ccc(Cl)cc1)[C@@]2(OCC1(CO)CC1)c1ccc(Cl)cc1 [Example 2, (3R)-3-(4-chlorophenyl)-2-[(4-chlorophenyl)methyl]-4-fluoro-3-{[1-(hydroxymethyl)cyclopropyl]methoxy}-6-(2-hydroxypropan-2-yl)-2,3-dihydro-1H-isoindol-1-one]
IC50 (SN40R2): 17 µM

CC(C)(O)c1ccc2c(c1)C(=O)N(Cc1ccc(Cl)cc1)[C@@]2(OCC1(CO)CC1)c1ccc(Cl)cc1 [Example 1, (3R)-3-(4-chlorophenyl)-2-[(4-chlorophenyl)methyl]-3-{[1-(hydroxymethyl)cyclopropyl]methoxy}-6-(2-hydroxypropan-2-yl)-2,3-dihydro-1H-isoindol-1-one]
IC50 (SN40R2): 7.5 µM

CC(O)(CN1CCNCC1)c1cc(F)c2c(c1)C(=O)N(Cc1ccc(Cl)cc1S(C)(=O)=O)[C@@]2(OCC1(CO)CC1)c1ccc(Cl)cc1 (stereo partly drawn) [Example 43, (3R)-2-[(4-chloro-2-methanesulfonylphenyl)methyl]-3-(4-chlorophenyl)-4-fluoro-6-[2-hydroxy-1-(piperazin-1-yl)propan-2-yl]-3-{[1-(hydroxymethyl)cyclopropyl]methoxy}-2,3-dihydro-1H-isoindol-1-one]
IC50 (SN40R2): 2 µM
